Results taken from PMC7449217, “The FDA-Approved Drug Nelfinavir Inhibits Lytic Cell-Free but Not Cell-Associated Nonlytic Transmission of Human Adenovirus” (Antimicrobial Agents and Chemotherapy, 2020).
Where a name gives a salt, the structure may show the parent alone.

Assays:
Assay in all cases: fluorescence-based plaque-forming assay, A549 cells
Format in all cases: cell-based, human adenovirus
HAdV-A31 = system: HAdV-A31
Method: (§1) Per 96-well plate, 15,000 A549 cells, 10,000 HeLa cells, 30,000 HBECs, 30,000 HCE cells, or 30,000 CMT-93 cells were seeded in 100 μl of the respective supplemented medium and allowed to settle for 1 h at room temperature (RT) prior to cell culture incubation at 37°C with 5% CO2 and 95% humidity. The following day, the medium was replaced with 50 μl of the respective virus stock dilution giving rise to 5 to 50 plaques per 96-well plate. Fifty microliters of nelfinavir to obtain a 0.1 to 50 μM final concentration or the DMSO solvent control was also added, both in supplemented medium. For each experiment, a noninfected, treated control was performed. For uphill plaque assays, the medium volume was increased to 150 μl with identical virus and drug concentrations. For wash-in/washout experiments, the virus was incubated on cells in supplemented medium for 1 h at 37°C, cells were washed with PBS, and a 100-μl drug dilution in supplemented medium was added. All experiments were performed in four technical replicates or as indicated. Cells were incubated under standard cell culture conditions. At the indicated times postinfection, the cells were fixed, and the nuclei were stained for 1 h at RT by the addition of 33 μl 16% (wt/vol) paraformaldehyde (PFA) and 4 μg/ml Hoechst 33342 (Sigma-Aldrich, St. Louis, MO, USA) in PBS. Cells were washed three times with PBS and stored in PBS supplemented with 0.02% N3 for infections with viruses harboring a GFP transgene. For wild-type (wt) viruses, cells were quenched in PBS supplemented with 50 mM NH4Cl, permeabilized using 0.2% (vol/vol) Triton X-100 in PBS, and blocked with 0.5% (wt/vol) bovine serum albumin (BSA) in PBS. Cells were incubated with 381.7 ng/ml mouse anti-HAdV hexon protein antibody (Mab8052; Sigma-Aldrich, St. Louis, MO, USA) and subsequently stained using 2 μg/ml goat anti-mouse-Alexa Fluor 594 (catalog number A21203 or A32742; Thermo Fisher Scientific, Waltham, MA, USA). Plates were imaged on either an IXM-XL or an IXM-C automated high-throughput fluorescence microscope (Molecular Devices, San Jose, CA, USA) using a 4× objective in wide-field mode. Hoechst staining was recorded in the 4′,6-diamidino-2-phenylindole (DAPI) channel, the fluorescein isothiocyanate (FITC)/GFP channel was acquired for viral GFP, and the tetramethyl rhodamine isothiocyanate (TRITC)/Texas Red channel was acquired for hexon immunofluorescence staining.
(§2) The infection phenotype for each well was quantified using Plaque2.0 ([101]). The number of plaques was determined based on the infection signal (viral GFP or hexon immunofluorescence staining). Nuclei stained with Hoechst were segmented by using CellProfiler ([178]). Infected nuclei were classified based on the median infection signal per nucleus in CellProfiler. Data were plotted, and the EC50 (infected and treated cells), the TC50 (noninfected, treated cells), as well as the corresponding standard errors (SE) were determined using curve fitting in GraphPad (version 8.1.2; GraphPad Software, Inc.) using three-parameter inhibitor concentration-versus-response nonlinear regression. The mean TI50 was calculated as the […] ratio of the means. The TI50 SE was calculated by error propagation.

HAdV-D8 = system: HAdV-D8
Method: as §1, §2

HAdV-B14 = system: HAdV-B14
Method: as §1, §2

HAdV-B3-pIX-FS2A-GFP = system: HAdV-B3-pIX-FS2A-GFP
Method: as §1, §2

HAdV-B7 = conditions: for TI50 (TC50/IC50): HAdV-B7 in A549, 4 dpi, Hexon
Method: as §1, §2

HAdV-B16 = system: HAdV-B16
Method: as §1, §2

HAdV-C2 = system: HAdV-C2
Method: as §1, §2

HAdV-B14a = system: HAdV-B14a
Method: as §1, §2

HAdV-B35-pIX-FS2A-GFP = system: HAdV-B35-pIX-FS2A-GFP
Method: as §1, §2

HAdV-C2-dE3B-GFP-dADP = conditions: for EC50: Human adenovirus sp., plaque numbers
Method: as §1, §2

HAdV-B21a = system: HAdV-B21a
Method: as §1, §2

HAdV-C5 = system: HAdV-C5
Method: as §1, §2

HAdV-B34 = system: HAdV-B34
Method: as §1, §2

HAdV-B11 = conditions: for TI50 (TC50/IC50): HAdV-B11 in A549, 3 dpi, Hexon
Method: as §1, §2

HAdV-C1 = system: HAdV-C1
Method: as §1, §2

HAdV-D37 = system: HAdV-D37
Method: as §1, §2

Cc1c(O)cccc1C(=O)N[C@@H](CSc1ccccc1)[C@H](O)CN1C[C@H]2CCCC[C@H]2C[C@H]1C(=O)NC(C)(C)C [Nelfinavir, Nelfinavir mesylate]
TI50 (TC50/IC50) (HAdV-A31; HAdV-A31 in A549, 6 dpi, Hexon): 1.35 | EC50 (HAdV-A31; Human adenovirus sp., HAdV-A31 in A549, fixation 6 dpi, read-out Hexon, plaque numbers): 14.1 µM | TI50 (TC50/IC50) (HAdV-D8; HAdV-D8 in A549, 5 dpi, Hexon): 2.36 | EC50 (HAdV-D8; Human adenovirus sp., HAdV-D8 in A549, fixation 5 dpi, read-out Hexon, plaque numbers): 9.09 µM | TI50 (TC50/IC50) (HAdV-B14; HAdV-B14 in A549, 3 dpi, Hexon): 14.22 | EC50 (HAdV-B14; Human adenovirus sp., HAdV-B14 in A549, fixation 3 dpi, read-out Hexon, plaque numbers): 0.84 µM | TI50 (TC50/IC50) (HAdV-B3-pIX-FS2A-GFP; HAdV-B3-pIX-FS2A-GFP in A549, 3 dpi, Hexon): 1.50 | EC50 (HAdV-B3-pIX-FS2A-GFP; Human adenovirus sp., A549): 10.2 µM | TI50 (TC50/IC50) (HAdV-B7): 0.75 | TI50 (TC50/IC50) (HAdV-B7; listed as nelfinavir): < 1 | EC50 (HAdV-B7; Human adenovirus sp., HAdV-B7 in A549, fixation 4 dpi, read-out Hexon, plaque numbers): 16.9 µM | TI50 (TC50/IC50) (HAdV-B16; HAdV-B16 in A549, 4 dpi, Hexon): 1.66 | EC50 (HAdV-B16; Human adenovirus sp., HAdV-B16 in A549, fixation 4 dpi, read-out Hexon, plaque numbers): 12.3 µM | TI50 (TC50/IC50) (HAdV-C2; HAdV-C2 in A549, 4 dpi, Hexon): 71.09 | EC50 (HAdV-C2; Human adenovirus sp., HAdV-C2 in A549, fixation 4 dpi, read-out Hexon, plaque numbers): 0.24 µM | TI50 (TC50/IC50) (HAdV-B14a; HAdV-B14a in A549, 3 dpi, Hexon): 38.22 | EC50 (HAdV-B14a; Human adenovirus sp., HAdV-B14a in A549, fixation 3 dpi, read-out Hexon, plaque numbers): 0.4 µM | TI50 (TC50/IC50) (HAdV-B35-pIX-FS2A-GFP; HAdV-B35-pIX-FS2A-GFP in A549, 4 dpi, Hexon): 6.13 | EC50 (HAdV-B35-pIX-FS2A-GFP; Human adenovirus sp., A549): 2.49 µM | TI50 (TC50/IC50) (HAdV-C2-dE3B-GFP-dADP; HAdV-C2-dE3B-GFP-dADP in A549, 4 dpi, GFP): 2.11 | TI50 (TC50/IC50) (HAdV-C2-dE3B-GFP-dADP; HAdV-C2-dE3B-GFP-dADP in A549, 4 dpi, GFP, listed as nelfinavir): 2.1 | TI50 (TC50/IC50) (HAdV-C2-dE3B-GFP-dADP; HAdV-C2-dE3B-GFP-dADP in A549, 5 dpi, GFP): 6.73 | TI50 (TC50/IC50) (HAdV-C2-dE3B-GFP-dADP; HAdV-C2-dE3B-GFP-dADP in A549, 5 dpi, Hexon): 5.20 | EC50 (HAdV-C2-dE3B-GFP-dADP; A549, HAdV-C2-dE3B-GFP-dADP in A549, fixation 4 dpi (96 hpi), read-out GFP): 5.82 µM | EC50 (HAdV-C2-dE3B-GFP-dADP; A549, HAdV-C2-dE3B-GFP-dADP in A549, fixation 5 dpi, read-out GFP): 2.23 µM | EC50 (HAdV-C2-dE3B-GFP-dADP; A549, HAdV-C2-dE3B-GFP-dADP in A549, fixation 5 dpi, read-out Hexon): 2.88 µM | TI50 (TC50/IC50) (HAdV-B21a; HAdV-B21a in A549, 4 dpi, Hexon): 1.27 | EC50 (HAdV-B21a; Human adenovirus sp., HAdV-B21a in A549, fixation 4 dpi, read-out Hexon, plaque numbers): 16 µM | TI50 (TC50/IC50) (HAdV-C5; HAdV-C5 in A549, 3 dpi, VI): 21.01 | EC50 (HAdV-C5; Human adenovirus sp., HAdV-C5 in A549, fixation 3 dpi, read-out VI, plaque numbers): 0.57 µM | TI50 (TC50/IC50) (HAdV-B34; HAdV-B34 in A549, 4 dpi, Hexon): 6.40 | EC50 (HAdV-B34; Human adenovirus sp., HAdV-B34 in A549, fixation 4 dpi, read-out Hexon, plaque numbers): 3.18 µM | TI50 (TC50/IC50) (HAdV-B11): 0.53 | TI50 (TC50/IC50) (HAdV-B11; listed as nelfinavir): < 1 | EC50 (HAdV-B11; Human adenovirus sp., HAdV-B11 in A549, fixation 3 dpi, read-out Hexon, plaque numbers): 28.9 µM | TI50 (TC50/IC50) (HAdV-C1; HAdV-C1 in A549, 4 dpi, Hexon): 12.22 | EC50 (HAdV-C1; Human adenovirus sp., HAdV-C1 in A549, fixation 4 dpi, read-out Hexon, plaque numbers): 1.94 µM | TI50 (TC50/IC50) (HAdV-D37; HAdV-D37 in A549, 5 dpi, Hexon): 1.29 | EC50 (HAdV-D37; Human adenovirus sp., HAdV-D37 in A549, fixation 5 dpi, read-out Hexon, plaque numbers): 16.7 µM
